Here are results for ten compounds from US20050209169A1, “Use of boswellic acid and its derivatives for inhibiting normal and increased leucocytic elastase or plasmin activity” (Hermann P.T. Ammon, priority 1995, published 2005).

One assay addresses T1, human plasmin (Homo sapiens, UniProt P00747).
T1 construct: purchased SIGMA
In words: Plasmin activity in vitro, photometric, substrate D-Ile-Phe-Lys-pNA. To be noted: for IC50: human plasmin in vitro, FIG. 2, read-out: half-maximum inhibition constants (IC50) of plasmin activity; for inhibition of plasmin activity, summary in words: in vitro test system, concentrations reachable in human blood after oral olibanum or frankincense extracts. Format: biochemical. As for the experimental part:
The activity of human plasmin (SIGMA) was determined photometrically in vitro with the substrate D-Ile-Phe-Lys-pNA (Cs-Szabo et al., Thrombosis Res. 1980, 20: 199-206). The plasmin activity is referred to as the release of p-nitronaniline per minute (nmole/min) from the substrate as mean values±S.D. of n=3 measurements each.

In a further assay the target is chymotrypsin (Bos taurus, UniProt P00766). In words: Chymotrypsin activity in vitro, photometric, MeO-Suc-Ala-Ala-Pro-Phe-p-nitroanilide substrate.
Assay [1] deals with T2, human leucocytic elastase (Homo sapiens, UniProt P08246).
T2 construct: purchased Calbiochem
T2 sequence (P08246 30-267): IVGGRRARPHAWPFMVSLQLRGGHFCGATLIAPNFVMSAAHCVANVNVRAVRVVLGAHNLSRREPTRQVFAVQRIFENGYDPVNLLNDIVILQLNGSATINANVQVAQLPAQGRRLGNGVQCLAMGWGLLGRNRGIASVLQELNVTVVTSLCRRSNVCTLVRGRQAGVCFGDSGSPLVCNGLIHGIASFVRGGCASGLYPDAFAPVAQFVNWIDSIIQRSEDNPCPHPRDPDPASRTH
In words: Human leucocytic elastase activity in vitro, photometric, MeO-Suc-Ala-Ala-Pro-Val-p-nitroanilide substrate. To be noted: for remaining activity at 20 µM: 20 μM test compound, percentage of 100% controls, read-out: residual activity of human leucocytic elastase; for inhibitory effect on human leucocytic elastase: concentration of 20 μM each in the test, reference substances. Format: biochemical. From the text: The effects which differing concentrations of acetyl-11-keto-β-boswellic acid (AKBA) had on the human leucocytic elastase in these three series of measurement are shown as percentage of 100% controls as mean values±S.D. of three independent measurements each.

The next assay addresses T3, human leucoytic elastase (Homo sapiens, UniProt P08246).
T3 sequence (P08246 30-267): T2 sequence (P08246 30-267)
To be noted: literature, Ying et al. 1991, Biochem. J. 277: 521-526; read-out: Ki values, inhibition of human leucocytic elastase; cited from earlier work.

T1 sequence (P00747 581-810 limits assumed): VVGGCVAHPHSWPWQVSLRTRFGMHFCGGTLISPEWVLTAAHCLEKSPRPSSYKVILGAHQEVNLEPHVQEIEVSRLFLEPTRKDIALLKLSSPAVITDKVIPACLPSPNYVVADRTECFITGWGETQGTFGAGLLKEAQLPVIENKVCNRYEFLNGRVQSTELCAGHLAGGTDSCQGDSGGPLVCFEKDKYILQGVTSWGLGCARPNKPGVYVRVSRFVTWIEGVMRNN
T1 sequence (P00747 97-580 partner limits assumed): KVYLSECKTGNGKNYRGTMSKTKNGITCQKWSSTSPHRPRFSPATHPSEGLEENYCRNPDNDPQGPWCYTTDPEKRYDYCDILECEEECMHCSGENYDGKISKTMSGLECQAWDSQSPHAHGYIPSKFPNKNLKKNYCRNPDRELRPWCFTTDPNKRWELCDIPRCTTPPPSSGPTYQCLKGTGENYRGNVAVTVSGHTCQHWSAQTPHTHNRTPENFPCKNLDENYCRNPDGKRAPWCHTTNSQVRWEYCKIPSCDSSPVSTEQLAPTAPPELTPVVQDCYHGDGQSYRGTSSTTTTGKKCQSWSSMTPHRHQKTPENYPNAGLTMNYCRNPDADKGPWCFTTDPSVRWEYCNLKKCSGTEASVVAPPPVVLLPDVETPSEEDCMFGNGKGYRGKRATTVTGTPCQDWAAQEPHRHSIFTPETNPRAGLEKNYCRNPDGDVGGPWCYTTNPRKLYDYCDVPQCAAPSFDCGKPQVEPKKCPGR

With `CC(=O)OC1CCC2(C)C(CCC3(C)C2C(=O)C=C2C4C(C)C(C)CCC4(C)CCC23C)C1(C)C(=O)O` (stereo not drawn) [AKBA, acetyl-11-keto-β-boswellic acid], the IC50 (as a rule, the concentration that inhibits the measured activity by half) at human plasmin was 4 to 6 µM; in assay [1] (substrate concentrations of 50, 100 and 150 μM, 10% DMSO, room temperature, read-out: IC50 values, inhibition of human leucocytic elastase), approximately 17 µM. For the same compound, the “inhibition of plasmin activity, summary in words” value (shortened to “inhibition of plasmin activity”) against human plasmin is given as “inhibited almost completely”. The figures for the “chymotrypsin activity, of the control activity” value (“chymotrypsin activity” for short) at chymotrypsin (50 μM test compound) and on chymotrypsin (100 μM test compound) were 89% and 85%, respectively. Also, in assay [1], the remaining activity at 20 µM stood at 18%.

Regarding `C[C@]12CCC(=O)C=C1CC[C@@H]1[C@@H]2[C@@H](O)C[C@@]2(C)[C@H]1CC[C@]2(O)C(=O)CO` [cortisol], the “inhibitory effect on human leucocytic elastase” value (“inhibitory effect” below) in assay [1] was “no inhibitory effect”.

In the case of `CC(Cc1ccc(O)c(O)c1)C(C)Cc1ccc(O)c(O)c1` (stereo not drawn) [NDGA], in assay [1], the “inhibitory effect” value was “no inhibitory effect”.

As to `CCCCC/C=C\C/C=C\C/C=C\C/C=C\CCCC(=O)O` [arachidonic acid], in assay [1], the “inhibitory effect” value is recorded as “no inhibitory effect”.

Regarding `C[C@]12CC[C@H]3[C@@H](CCC4=CC(=O)CC[C@@]43C)[C@@H]1CC[C@@H]2O` [testosterone], the “inhibitory effect” value in assay [1] is “no inhibitory effect”.

Consider amyrin, for which, on human plasmin (concentrations up to 50 μM (not shown)), the “influence on plasmin activity” value is given as “does not influence significantly”. For the same compound, the “inhibition of plasmin activity” value on human plasmin is “not effective at all”.

For `CC(C)c1ccc2c(c1)c(SC(C)(C)C)c(CC(C)(C)C(=O)O)n2Cc1ccc(Cl)cc1` [MK886], the “inhibitory effect” value in assay [1] is given as “no inhibitory effect”.

For the compound `CC1(C)[C@@H](O)CC[C@]2(C)[C@H]3C(=O)C=C4[C@@H]5C[C@@](C)(C(=O)O)CC[C@]5(C)CC[C@@]4(C)[C@]3(C)CC[C@@H]12` [glycerrhitinic acid], the “inhibitory effect” value in assay [1] is reported as “no inhibitory effect”.

For the compound `C[C@H]1[C@H](C)CC[C@]2(C)CC[C@]3(C)C(=CC[C@@H]4[C@@]5(C)CC[C@@H](O)[C@](C)(C(=O)O)[C@@H]5CC[C@]43C)[C@H]12` [β-BA, β-boswellic acid], the “inhibition of plasmin activity” value at human plasmin is given as “inhibited almost completely”.

For the compound `C[C@H]1[C@H](C)CC[C@]2(C(=O)O)CC[C@]3(C)C(=CC[C@@H]4[C@@]5(C)CC[C@H](O)C(C)(C)[C@@H]5CC[C@]43C)[C@H]12` [ursolic acid], on human plasmin, the IC50 is approximately 15 µM and the “inhibition of plasmin activity” value is “substantially weaker”. The “chymotrypsin activity” value on chymotrypsin (50 μM test compound) is given as 56%. Also, at chymotrypsin (100 μM test compound), the “chymotrypsin activity” value was determined as 30%. Also, the Ki (in general, a measure of affinity in units of concentration, obtained from inhibition or displacement) at human leucoytic elastase was 4 to 6 µM. In addition, the remaining activity at 20 µM in assay [1] came out at 11%.
